Data set [1] concerns BLM-induced pulmonary fibrosis. Nature of the data set: BLM-induced pulmonary fibrosis model, inhaled drug. Type of data set: in vivo, C57Bl/6 mice. From the text:
BLM-induced pulmonary fibrosis was induced via the oropharyngeal aspiration of BLM (0.8 U/Kg).[54]^,[55]^,[141] The dose and route of administration have been selected following extensive local testing to minimise lethality while preserving a solid and reproducible fibrotic profile. Readout assays include weight and overall health status, pulmonary oedema and inflammation, collagen levels determination (soluble in BALFs, Q-RT-PCR and histology in lung tissue), lung histology with specialised stainings (Fast green/picrosirius red), as well as the measurement of respiratory functions (flexiVent, SQIREQ); a detailed protocol is publicly available at protocols.io.
Drug inhalation of compound 5 and EL244 to conscious, softly restrained mice was performed using the inExpose system (Scireq).[55] Compound 5 and EL244 were diluted in Kolliphor (15% and 10%, respectively) to final concentrations of 6.5 and 9.02 mg/mL, respectively. Volumes of 1 mL (for 5) and 0.6 mL (for EL244) were aerosolized over 10 and 15 min, respectively in groups of 6 mice, corresponding to a final estimated dose of 15mg/Kg per mouse. Control groups received an aerosolized solution of Kolliphor (10–15%) in saline.

Data set [2] has as its system choline oxidase and horseradish peroxidase. In words: Interference with the 2nd and 3rd reaction of the Amplex Red assay. Type of data set: biochemical. The method, then: ATX inhibitory activity in vitro of examined compounds was assessed with the Amplex Red assay,[32]^,[35]^,[36] as recently published in detail.[37] The assay was done in Amplex Red Assay buffer (Tris 50 mM, CaCl2 5 mM, pH 8). Briefly, 50 μL of increasing concentrations of each compound were placed in separate wells of a black 96-well plate. […] 50 μL of the LPC-containing assay buffer (200 μM) were added to the wells and incubated for 30 min at 37°C to allow the enzyme to initially interact with its substrate. 50 μL of the detection mix (Amplex Red 200 μM, choline oxidase 0.4 U/mL, horseradish peroxidase 4 U/mL) were added to the plate wells. Fluorescence was measured in a Tecan M200 Fluorimeter using excitation at 530 nm and reading at 590 nm, every 5 min for 30 min. The velocity of the reaction and the remaining ATX activity were calculated at the linear phase of the reaction. Dose-response inhibition graphs were plotted with GraphPad Software.
Figure S3. Kinetic analysis of ATX inhibition. Related to Figures 3 and 4
(B) Kinetics for the second (oxidation of choline catalysed by choline oxidase) and third reaction (the conversion of the
Amplex substrate to the fluorescent resorufin catalysed by horseradish peroxidase, HRP) of the Amplex Red Lyso-
phospholipase D assay for representative compounds (TGZ, 4, 5 and EL244). The first reaction includes the conversion of
LPC to LPA catalysed by ATX.
Kinetic graphs are indicative of three technical replicates. […]

A short description of data set [3]: Mouse metabolic clearance and half-life in vitro.
In another data set the test system is ATX activity in serum. In words: TOOS assay: ex vivo lyso-PLD (ATX) activity in serum with 2 mM exogenous LPC. Type of data set: biochemical. How it is done:
ATX inhibitory activity ex vivo of examined compounds was assessed via the colorimetric TOOS assay.[32]^,[35]^,[36] The assay was done in Lyso-PLD buffer (100 mM Tris-Cl, pH 8, 500 mM NaCl, 5 mM MgCl2, 5 mM CaCl2). A mix of Lyso-PLD buffer and serum (10:1) was prepared. LPC 16:0 was added to this mix at a final concentration of 2 mM. Increasing concentrations of compounds and a choline standard curve (0–100 μM) were prepared using the Lyso-PLD buffer/serum/LPC mix and 100 μL of these were placed in separate wells of a 96-well plate, followed by a 5 h incubation at 37°C. 100 μL of color mix (TOOS 0.3 mM, 4-AAP 0.5 mM, choline oxidase 2 U/mL, HRP 7.95 U/mL in Lyso-PLD buffer) were added to each well. Color was measured at 550 nm using an Optimax spectrophotometer. Background was subtracted from all values to account for the endogenous LPC and choline in the serum. Produced choline levels were calculated from the choline standard curve and indicate the amount of substrate (LPC) that had been consumed in each well corresponding to Lyso-PLD activity.

The target of the next data set is T1, PPARγ (Homo sapiens, UniProt P37231).
T1 construct: expressed in transfected cells; host or cells: HEK293T
T1 sequence (P37231 238-503 limits assumed): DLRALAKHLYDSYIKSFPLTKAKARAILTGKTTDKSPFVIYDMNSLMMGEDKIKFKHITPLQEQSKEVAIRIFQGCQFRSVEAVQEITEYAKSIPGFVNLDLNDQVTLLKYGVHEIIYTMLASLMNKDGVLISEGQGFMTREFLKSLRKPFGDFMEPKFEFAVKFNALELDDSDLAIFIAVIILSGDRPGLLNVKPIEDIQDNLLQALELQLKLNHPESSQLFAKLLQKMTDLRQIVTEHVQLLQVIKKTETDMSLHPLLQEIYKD
In words: PPARγ Gal4 hybrid reporter gene assay. Type of data set: cell-based. The conditions noted are these: for EC50 / PPARγ fold activ. (max. activation): Gal4-hybrid reporter, HEK293T cells; for Selectivity for PPARγ: versus PPARα and PPARδ hybrid reporters. How it is done: All well-established assays were performed following straightforward methodology.[49] Plasmids pFA-CMV-hPPARα-LBD, pFA-CMV-hPPARγ-LBD and pFA-CMV-hPPARδ-LBD code for the hinge region and ligand binding domain of the canonical isoform of the respective nuclear receptor and were used to express the Gal4 hybrid receptors. pFR-Luc (Stratagene, La Jolla, CA, USA) and pRL-SV40 (Promega, Madison, WI, USA) were used as Gal4-responsive reporter and as internal control in the hybrid reporter gene assays, respectively. HEK293T cells were seeded in 96-well plates (3×10^4 cells/well). Before transfection, the medium was changed to Opti-MEM without supplements, and transient transfection with the plasmids pFR-Luc, pRL-SV40, and one pFA-CMV-NR-LBD clone was carried out using Lipofectamine LTX reagent (Invitrogen, Carlsbad, CA, USA) according to the manufacturer’s protocol. […] Normalisation of transfection efficiency and cell growth was performed by dividing firefly luminescence by Renilla luminescence and multiplying the result by 1000, yielding relative light units (RLU). Fold activation was obtained by dividing the mean RLU of the test compound by the mean RLU of the untreated control.

[4] abbreviates: inhaled 15 mg/kg b.i.d., therapeutic mode from 7 days post-BLM.
Where [5] appears, read: inhaled 15 mg/kg o.d., prophylactic mode.
The mark [6] stands for this setting: inhaled 15 mg/kg o.d., therapeutic mode from day 7 post-BLM.

“Also recorded” adds a separate entry of the source.

The results in this text go back to PMC13198257, “An aerosolized dual-action autotaxin inhibitor-PPARγ agonist for the treatment of pulmonary fibrosis” (Cell Reports Medicine, 2026).

`O=C1NC(=O)C(Cc2ccc(OCCN3CCN(C(=O)OCc4cc(Cl)cc(Cl)c4)CC3)cc2)S1` (centres unmarked) [Compound 5, 3,5-dichlorobenzyl4-(2-(4-((2,4-dioxothiazolidin-5-yl)methyl)phenoxy)ethyl)piperazine-1-carboxylate]: in data set [1] (setting [4]), the BALF inflammatory cells entry was “decreased inflammatory cells”; the “BALF total protein (vascular leak, pulmonary edema)” value is reported as “decreased total protein levels”; the “Decrease of BALF soluble collagen” value is listed as “did not reach statistical significance”; the “Decrease of lung tissue Col1a1 mRNA” value was “did not reach statistical significance”. Moreover, in data set [1] (setting [4]), the “Histology (H&E, fast green/Sirius red)” value is “fewer fibrotic regions and decreased collagen deposition”; the “Respiratory functions (Cst, Crs, A)” value is “efficiently attenuated the BLM-induced impairment of respiratory functions”. Further, the “Interference on the 2nd and 3rd steps of the Amplex Red assay” value in data set [2] was “Minimal interference; also recorded: not involved at all in the second and third reaction”. This compound came in with a half-life at 0.1 μM in data set [3] of 21 min. Besides, the “lyso-PLD (ATX) inhibition in serum” value in the data set on ATX activity in serum is given as “dose-dependent effect”. In addition, on PPARγ, the EC50 was 1500 nM, the “PPARγ fold activ. (max. activation)” value is 9 ± 1 fold and the “Selectivity for PPARγ” value is recorded as “selective PPARγ agonist”.
In the case of `O=C1NC(=O)C(Cc2ccc(OCCC3CCN(C(=O)OCc4cc(Cl)cc(Cl)c4)CC3)cc2)S1` (centres unmarked) [EL244, 3,5-dichlorobenzyl 4-(2-(4-((2,4-dioxothiazolidin-5-yl)methyl)phenoxy)ethyl)piperidine-1-carboxylate], in data set [1] (BLM mice, inhaled EL244), the “PPARγ target gene mRNA in lung tissue (RT-qPCR)” value was “marginal increases”. For the same compound, in data set [1] (setting [5]), the BALF soluble collagen result was “significantly reduced”; the Histology entry is “attenuated collagen deposition and reduced fibrotic regions”; the “Inflammation (BALF inflammatory cells)” value is recorded as “markedly reduced”; the “Lung tissue Col1a1 mRNA” value is “significantly reduced”. In addition, in data set [1] (setting [5]), the “Pulmonary edema (BALF total protein)” value is “markedly reduced”. The Respiratory functions result in data set [1] (inhaled 15 mg/kg o.d., prophylactic mode, 15 days from one day before BLM) is listed as “significantly improved respiratory functions”. Further, in data set [1] (setting [6]), the BALF soluble collagen entry is on record as “significantly reducing”; the “Effect on inflammation (BALF inflammatory cells)” value is on record as “did not reach statistical significance”; the Histopathology result is “reduced collagen deposition and fewer and smaller fibrotic regions”; the “Lung tissue Col1a1 expression” value was “significantly reducing”. Besides, in data set [1] (setting [6]), the Respiratory functions entry is given as “significantly restored all assessed respiratory functions” and the “Vascular permeability (BALF total protein)” value is recorded as “reduced vascular permeability”. The “Interference on the 2nd and 3rd steps of the Amplex Red assay” value in data set [2] is “not involved at all in the second and third reaction”. In addition, in data set [3], the half-life at 0.1 μM came to 61 min and the microsomal CLint at 0.1 μM was determined as 114 µL/min/mg. Further, the “lyso-PLD (ATX) inhibition in serum” value in the data set on ATX activity in serum is recorded as “Improved lyso-PLD inhibition”. Besides, at PPARγ, the concentration for a half-maximal effect (EC50) amounted to 1300 nM, the “PPARγ fold activ. (max. activation)” value is listed as 17 ± 1 fold and the “Selectivity for PPARγ” value is “selectively”.
